Consider 5 compounds from patent US4268685A, “Salicylamide esters and related pharmaceutical composition” (Neopharmed S.p.A., priority 1979, dated 1981).

The nature of one series: hot plate test. The note with it: in vivo. The text has this: The pharmacological tests, as carried out with the compound of example 3, show: […]
Series [1] can be described thus: plasma content (bioavailability) after administration. The note with it: in vivo.
The conditions of series [2]: in vivo.
For series [3], the system named is prostaglandine synthetases. Nature of the series: forming of prostaglandine synthetases.
For series [4] the following is noted: in vivo, po.
A short description of series [5]: solubility of the product. The series is classed as physicochemical.

With `CC(C)Cc1ccc(C(C)C(=O)Oc2ccccc2C(N)=O)cc1` (centres unmarked) [Example 3, Ester of salicylamide with 2-(4-isobutyl-phenyl)-propionic acid], the “activity at the hot plate test” value in the series “hot plate test” is “high activity”. Also, the time extended action entry in series [1] is “time extended action”. Further, the “time for which plasma content remains essentially unchanged” value in series [2] (po) is on record as “more than 7 hours”. The “effect on the forming of prostaglandine synthetases” value (shortened to “effect on the forming”) in series [3] is on record as “enhanced”.
Take `COc1ccc2c(c1)c(CC(=O)O)c(C)n2C(=O)c1ccc(Cl)cc1` [indomethacin]: the “effect on the forming” value in series [3] is given as “opposite behaviour”.
As to `CC(C)Cc1ccc(C(C)C(=O)O)cc1` (centres unmarked) [Ibuprofen, 2-(4-isobutyl-phenyl)-propionic acid], the “effect on the forming” value in series [3] is on record as “opposite behaviour”. For the same compound, in series [4], the Tmax was determined as 1 h.
Take `COc1ccc2cc([C@H](C)C(=O)Oc3ccccc3C(N)=O)ccc2c1` [Example 1, Ester of salicylamide with 2-(6'-methoxy-2'-naphtyl)-propionic acid]: the solubility in acetone entry in series [5] (acetone) was “soluble”. For the same compound, in series [5] (alcohol), the solubility in alcohol entry is recorded as “little soluble”. In addition, the solubility in benzene result in series [5] (benzene) was “little soluble”. Besides, the solubility in chloroform result in series [5] (chloroform) is reported as “little soluble”. For the same compound, the solubility in pyridine entry in series [5] (pyridine) is “soluble”. For the same compound, the solubility in water result in series [5] (water) is recorded as “insoluble”.
Regarding `NC(=O)c1ccccc1O` [salicylamide], the “presence of salicylamide in the plasma” value in series [2] is “not present in the plasma”.
